Test results reported in patent publication US8524755B2 (priority 2009, dated 2013).

How the values were obtained:
Neuropeptide Y (ns) = assay: Binding Y (ns) (ag); design: species or system rat
Procedure: (§1) Radioligand binding assay methods utilized to measure the activity of compounds of the invention will be familiar to those skilled in the art. In each assay case, the assay components such as, for example, the cell-type, ligand, reference compound and the like, will be familiar to practitioners of such an assay.
(§2) Analysis and Expression of Results: Compounds of the invention were tested in the biochemical assays and percent inhibition of specific binding was determined. The specific ligand binding to the receptors is defined as the difference between the total binding and the nonspecific binding determined in the presence of an excess of unlabelled ligand. The results are expressed as a percent inhibition of control specific binding (100−((measured specific binding/control specific binding)×100)) obtained in the presence of test compounds.

KATP channel = assay: Binding KATP channel (aa); design: species or system rat
Procedure: as §1, §2

Somatostatin sst5 (h) = molecular target: T1, Somatostatin sst5 (h) (Homo sapiens, UniProt P35346); assay: Binding sst5 (h) (ag); details: read-out: % Inhibition of Control Specific Binding @ 10 μM
T1 construct: expressed in transfected cells; host or cells: CHO cells
Procedure: as §1, §2

PDE5 (h) (ns) = assay: Enzyme assay PDE5 (h) (ns); format: biochemical, human
Description: The enzyme assays provided below will be familiar to those skilled in the art.
Analysis and Expression of Results: The results are expressed as a percent of control specific activity ((measured specific activity/control specific activity)×100) obtained in the presence of the test compounds.

dopamine transporter (h) = molecular target: T2, dopamine transporter (h) (Homo sapiens, UniProt Q01959); assay: Binding dopamine transporter (h) (aa); details: read-out: % Inhibition of Control Specific Binding @ 10 μM
T2 construct: expressed in transfected cells; host or cells: CHO cells
Procedure: as §1, §2

5-HT (ns) = assay: Binding 5-HT (ns) (ag); design: species or system rat
Procedure: as §1, §2

Cannabinoid CB2 (h) = molecular target: T3, Cannabinoid CB2 (h) (Homo sapiens, UniProt P34972); assay: Binding CB2 (h) (ag); details: read-out: % Inhibition of Control Specific Binding @ 10 μM
T3 construct: expressed in transfected cells; host or cells: CHO cells
Procedure: as §1, §2

hERG = molecular target: T4, hERG (Homo sapiens, UniProt Q12809); assay: Binding hERG (membrane preparation) (aa); details: read-out: % Inhibition of Control Specific Binding @ 10 μM
T4 construct: expressed in transfected cells; host or cells: HEK-293 cells
Procedure: as §1, §2

[1] = molecular target: T5, human GABAA α1β3γ2 receptor (Homo sapiens, UniProt P14867+P18507+P28472); assay: GABAA Functional Assay, α1β3γ2, Xenopus oocytes; format: cell-based
T5 construct: expressed in transfected cells; host or cells: Xenopus laevis oocytes, cDNA injection

Adrenergic α1 (ns) = assay: Binding α1 (ns) (aa); design: species or system rat
Procedure: as §1, §2

[2] = molecular target: T6, Corticotropin Releasing Factor CRF1 (h) (Homo sapiens, UniProt P34998); assay: Binding CRF1 (h) (ag); details: read-out: % Inhibition of Control Specific Binding @ 10 μM
T6 construct: expressed in transfected cells; host or cells: CHO cells
T6 sequence (P34998 24-415): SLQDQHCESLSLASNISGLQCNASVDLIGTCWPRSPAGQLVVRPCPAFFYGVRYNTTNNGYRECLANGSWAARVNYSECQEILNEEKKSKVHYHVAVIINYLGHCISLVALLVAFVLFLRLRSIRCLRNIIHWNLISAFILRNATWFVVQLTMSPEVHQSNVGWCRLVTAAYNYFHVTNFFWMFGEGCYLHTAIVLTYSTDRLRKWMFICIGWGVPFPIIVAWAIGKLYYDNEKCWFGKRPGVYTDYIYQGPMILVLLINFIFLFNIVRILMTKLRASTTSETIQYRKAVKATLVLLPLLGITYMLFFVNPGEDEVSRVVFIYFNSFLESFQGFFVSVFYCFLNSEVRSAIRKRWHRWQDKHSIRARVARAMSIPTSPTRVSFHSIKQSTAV
Procedure: as §1, §2

T3 sequence (P34972 whole entry): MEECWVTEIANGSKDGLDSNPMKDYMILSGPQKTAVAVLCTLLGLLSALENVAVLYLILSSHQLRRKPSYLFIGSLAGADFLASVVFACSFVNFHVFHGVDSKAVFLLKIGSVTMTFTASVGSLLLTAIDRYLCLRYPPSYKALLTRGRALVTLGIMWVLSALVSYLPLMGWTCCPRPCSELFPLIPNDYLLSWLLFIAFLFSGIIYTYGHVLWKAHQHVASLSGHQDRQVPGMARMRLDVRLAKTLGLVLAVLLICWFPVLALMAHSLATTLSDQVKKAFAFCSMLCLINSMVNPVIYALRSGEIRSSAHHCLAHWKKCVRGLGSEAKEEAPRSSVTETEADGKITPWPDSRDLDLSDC
T1 sequence (P35346 whole entry): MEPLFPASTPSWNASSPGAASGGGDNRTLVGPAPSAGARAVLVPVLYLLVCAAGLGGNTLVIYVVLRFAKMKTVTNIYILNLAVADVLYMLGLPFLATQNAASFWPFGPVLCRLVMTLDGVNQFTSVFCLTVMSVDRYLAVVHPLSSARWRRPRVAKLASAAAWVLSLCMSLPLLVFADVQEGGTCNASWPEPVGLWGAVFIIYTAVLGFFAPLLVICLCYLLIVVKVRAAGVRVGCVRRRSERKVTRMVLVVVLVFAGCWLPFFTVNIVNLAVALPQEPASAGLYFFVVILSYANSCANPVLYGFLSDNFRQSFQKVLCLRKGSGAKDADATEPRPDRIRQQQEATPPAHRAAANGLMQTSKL
T4 sequence (Q12809 whole entry): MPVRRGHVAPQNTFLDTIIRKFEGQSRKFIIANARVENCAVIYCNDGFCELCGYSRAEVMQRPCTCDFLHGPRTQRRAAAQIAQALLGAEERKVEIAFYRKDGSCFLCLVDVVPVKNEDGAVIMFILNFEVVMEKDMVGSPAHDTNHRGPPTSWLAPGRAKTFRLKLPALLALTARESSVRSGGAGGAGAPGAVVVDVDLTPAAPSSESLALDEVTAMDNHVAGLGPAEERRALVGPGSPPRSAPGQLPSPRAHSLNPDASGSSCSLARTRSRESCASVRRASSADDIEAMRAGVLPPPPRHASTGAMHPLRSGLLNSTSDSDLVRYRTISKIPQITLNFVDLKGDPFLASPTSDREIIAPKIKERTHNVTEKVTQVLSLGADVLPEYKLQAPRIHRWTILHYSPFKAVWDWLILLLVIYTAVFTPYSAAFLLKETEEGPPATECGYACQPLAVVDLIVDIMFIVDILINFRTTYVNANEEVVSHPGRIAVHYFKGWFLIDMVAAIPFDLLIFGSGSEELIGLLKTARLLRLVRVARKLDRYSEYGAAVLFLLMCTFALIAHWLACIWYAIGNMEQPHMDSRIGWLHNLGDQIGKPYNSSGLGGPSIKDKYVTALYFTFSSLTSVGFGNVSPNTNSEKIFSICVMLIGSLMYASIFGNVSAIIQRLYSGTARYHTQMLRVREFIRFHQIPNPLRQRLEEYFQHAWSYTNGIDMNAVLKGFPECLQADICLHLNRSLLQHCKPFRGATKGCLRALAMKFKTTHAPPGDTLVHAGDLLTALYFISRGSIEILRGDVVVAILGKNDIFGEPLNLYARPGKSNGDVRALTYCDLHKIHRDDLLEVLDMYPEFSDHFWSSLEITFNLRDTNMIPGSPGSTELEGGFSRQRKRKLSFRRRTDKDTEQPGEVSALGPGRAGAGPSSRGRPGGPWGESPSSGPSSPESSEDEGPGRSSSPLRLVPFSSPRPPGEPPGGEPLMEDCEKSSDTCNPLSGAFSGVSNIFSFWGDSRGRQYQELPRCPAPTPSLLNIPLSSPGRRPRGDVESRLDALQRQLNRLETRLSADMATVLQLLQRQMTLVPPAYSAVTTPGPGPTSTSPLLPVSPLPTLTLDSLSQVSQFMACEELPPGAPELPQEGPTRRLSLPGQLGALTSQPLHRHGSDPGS
T2 sequence (Q01959 whole entry): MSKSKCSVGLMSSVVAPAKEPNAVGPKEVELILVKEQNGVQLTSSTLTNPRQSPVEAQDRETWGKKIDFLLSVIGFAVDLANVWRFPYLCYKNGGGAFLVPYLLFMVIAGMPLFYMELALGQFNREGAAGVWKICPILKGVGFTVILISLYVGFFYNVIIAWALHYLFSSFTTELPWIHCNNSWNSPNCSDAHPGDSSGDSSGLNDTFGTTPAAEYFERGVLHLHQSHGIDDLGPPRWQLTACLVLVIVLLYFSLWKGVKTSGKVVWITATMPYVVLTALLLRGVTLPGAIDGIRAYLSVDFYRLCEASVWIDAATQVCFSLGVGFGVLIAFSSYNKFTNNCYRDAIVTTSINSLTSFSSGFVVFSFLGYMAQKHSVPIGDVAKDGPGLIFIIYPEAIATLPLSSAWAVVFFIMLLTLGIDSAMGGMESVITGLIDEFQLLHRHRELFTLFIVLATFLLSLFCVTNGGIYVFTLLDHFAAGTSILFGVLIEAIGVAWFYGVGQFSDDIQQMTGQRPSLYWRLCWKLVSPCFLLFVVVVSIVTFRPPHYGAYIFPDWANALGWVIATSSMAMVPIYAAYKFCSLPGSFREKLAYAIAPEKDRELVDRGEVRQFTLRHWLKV
T5 sequence (P14867 28-456): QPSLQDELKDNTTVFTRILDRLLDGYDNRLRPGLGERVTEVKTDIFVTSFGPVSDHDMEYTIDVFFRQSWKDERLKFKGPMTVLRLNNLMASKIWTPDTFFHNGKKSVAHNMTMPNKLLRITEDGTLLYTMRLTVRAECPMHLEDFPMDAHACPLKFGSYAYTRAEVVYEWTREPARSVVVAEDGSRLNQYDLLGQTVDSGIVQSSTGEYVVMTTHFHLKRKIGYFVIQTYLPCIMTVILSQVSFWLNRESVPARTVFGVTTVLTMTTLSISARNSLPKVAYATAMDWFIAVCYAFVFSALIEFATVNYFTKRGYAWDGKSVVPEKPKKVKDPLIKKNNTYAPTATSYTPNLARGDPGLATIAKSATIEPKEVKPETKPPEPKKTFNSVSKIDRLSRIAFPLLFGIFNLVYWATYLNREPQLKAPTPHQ
T5 sequence (P28472 26-473): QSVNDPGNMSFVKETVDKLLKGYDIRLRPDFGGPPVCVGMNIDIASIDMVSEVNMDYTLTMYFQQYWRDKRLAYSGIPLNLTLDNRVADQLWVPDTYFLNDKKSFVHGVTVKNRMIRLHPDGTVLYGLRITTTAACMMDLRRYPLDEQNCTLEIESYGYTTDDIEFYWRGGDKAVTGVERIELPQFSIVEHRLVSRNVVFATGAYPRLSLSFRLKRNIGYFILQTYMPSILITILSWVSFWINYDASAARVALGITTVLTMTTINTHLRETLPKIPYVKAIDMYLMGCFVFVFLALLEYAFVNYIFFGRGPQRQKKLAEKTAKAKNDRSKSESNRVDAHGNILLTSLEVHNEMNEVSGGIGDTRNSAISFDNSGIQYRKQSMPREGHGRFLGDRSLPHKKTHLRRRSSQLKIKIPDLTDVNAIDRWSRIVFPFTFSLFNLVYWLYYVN
T5 sequence (P18507 40-475): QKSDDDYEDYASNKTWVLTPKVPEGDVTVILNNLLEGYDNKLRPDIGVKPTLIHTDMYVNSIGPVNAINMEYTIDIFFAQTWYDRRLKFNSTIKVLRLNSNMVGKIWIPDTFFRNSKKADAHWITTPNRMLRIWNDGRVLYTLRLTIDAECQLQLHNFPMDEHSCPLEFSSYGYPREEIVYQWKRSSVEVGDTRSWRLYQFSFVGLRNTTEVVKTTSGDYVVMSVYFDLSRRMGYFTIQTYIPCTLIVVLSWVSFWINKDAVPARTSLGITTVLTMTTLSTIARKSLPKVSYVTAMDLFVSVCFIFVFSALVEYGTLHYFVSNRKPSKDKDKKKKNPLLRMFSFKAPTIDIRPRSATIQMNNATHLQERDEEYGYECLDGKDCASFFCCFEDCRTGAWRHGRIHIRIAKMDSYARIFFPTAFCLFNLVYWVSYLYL

Structure (SMILES)	% Inhibition of Control Specific Binding @ 10 μM (Neuropeptide Y (ns))	% Inhibition of Control Specific Binding @ 10 μM (KATP channel)	inhibition at 10 µM (Somatostatin sst5 (h))	% Inhibition of Control Values @ 10 μM (PDE5 (h) (ns))	inhibition at 10 µM (dopamine transporter (h))	% Inhibition of Control Specific Binding @ 10 μM (5-HT (ns))	inhibition at 10 µM (Cannabinoid CB2 (h))	inhibition at 10 µM (hERG)	IC50 ([1]; antagonist protocol, Xenopus oocytes, read-out: α1β3γ2 receptor derived IC50)	% Inhibition of Control Specific Binding @ 10 μM (Adrenergic α1 (ns))	inhibition at 10 µM [2]	agonist activity at α1β3γ2 GABAA receptor (inward currents) ([1]; single exposure 30 sec)
CC1(C)C(=O)N(c2ccc(C#N)c(C(F)(F)F)c2)C(=S)N1c1ccc(C(=O)O)c(F)c1 [(MI), 4-(3-(4-cyano-3-(trifluoromethyl)phenyl)-5,5-dimethyl-4-oxo-2-thioxoimidazolidin-1-yl)-2-fluorobenzoic acid]	−6%	17%	-25%	4%	32%	21%	-2%	-39%	68.3 ± 6 µM	−4%	-4%	–
CC1(C)C(=O)N(c2ccc(C#N)c(C(F)(F)F)c2)C(=O)N1c1ccc(C(N)=O)c(F)c1 [(MIII), 4-(3-(4-cyano-3-(trifluoromethyl)phenyl)-5,5-dimethyl-2,4-dioxoimidazolidin-1-yl)-2-fluorobenzamide]	−2%	7%	2%	8%	13%	−12%	-3%	8%	–	−5%	-9%	–
CNC(=O)c1ccc(N2C(=O)N(c3ccc(C#N)c(C(F)(F)F)c3)C(=O)C2(C)C)cc1F [(MIV), 4-(3-(4-cyano-3-(trifluoromethyl)phenyl)-5,5-dimethyl-2,4-dioxoimidazolidin-1-yl)-2-fluoro-N-methylbenzamide]	−2%	7%	-7%	2%	7%	6%	1%	10%	–	−3%	-23%	did not evoke any detectable inward currents
CC1(C)C(=O)N(c2ccc(C#N)c(C(F)(F)F)c2)C(=S)N1c1ccc(C(N)=O)c(F)c1 [(MII), 4-(3-(4-Cyano-3-(trifluoromethyl)phenyl)-5,5-dimethyl-4-oxo-2-thioxoimidazolidin-1-yl)-2-fluorobenzamide]	−6%	24%	16%	−1%	23%	14%	1%	7%	–	−7%	1%	–
